{
  "source": "patent US4255421A",
  "about": "“Fortimicin aminoglycosides, process for production thereof, and use thereof” (Kowa Company, Ltd., priority 1978, dated 1981)",
  "assay_type_in_all_cases": "cell-based",
  "key": {"[1]": {"test_system": "Pseudomonas aeruginosa K-11", "assay": "antibacterial spectra (Table 1)", "conditions": "Pseudomonas aeruginosa K-11 (resistant to kanamycin)"}, "[2]": {"test_system": "Serratia marcescens", "assay": "antibacterial spectra (Table 1)"}, "[3]": {"test_system": "Bacillus anthracis"}, "[4]": {"test_system": "Escherichia coli NIHJ", "assay": "antibacterial spectra (Table 1)"}, "[5]": {"test_system": "Bacillus subtilis ATCC 6633", "assay": "antibacterial spectra (Table 1)"}, "[6]": {"test_system": "Pseudomonas aeruginosa TI-13", "assay": "antibacterial spectra (Table 1)"}, "[7]": {"test_system": "Streptococcus faecalis", "assay": "antibacterial spectra (Table 1)"}, "[8]": {"test_system": "Proteus vulgaris OX-19", "assay": "antibacterial spectra (Table 1)"}, "[9]": {"test_system": "Escherichia coli ML1410", "assay": "antibacterial spectra (Table 1)"}, "[10]": {"test_system": "Klebsiella pneumoniae PCI 602", "assay": "antibacterial spectra (Table 1)"}, "[11]": {"test_system": "Proteus inconstans", "assay": "antibacterial spectra (Table 1)"}, "[12]": {"test_system": "Pseudomonas aeruginosa No. 315", "assay": "antibacterial spectra (Table 1)", "conditions": "Pseudomonas aeruginosa No. 315 (resistant to gentamicin, tobramycin and amikacin)"}, "[13]": {"test_system": "Pseudomonas aeruginosa No. 12", "assay": "antibacterial spectra (Table 1)"}, "[14]": {"test_system": "Staphylococcus aureus 209P", "assay": "antibacterial spectra (Table 1)"}, "[15]": {"test_system": "Pseudomonas aeruginosa Shibata", "assay": "antibacterial spectra (Table 1)"}, "[16]": {"test_system": "Pseudomonas aeruginosa No. 157", "assay": "antibacterial spectra (Table 1)"}, "[17]": {"test_system": "Bacillus cereus", "assay": "antibacterial spectra (Table 1)"}, "[18]": {"test_system": "Pseudomonas aeruginosa A3", "assay": "antibacterial spectra (Table 1)"}},
  "data": [
    {"substance": "4-N-glycyl KA-6606VI", "values": [
      {"measurement": "antibacterial spectra", "setting": "[1]", "value": 6.25},
      {"measurement": "antibacterial spectra", "setting": "[2]", "value": 0.78},
      {"measurement": "antibacterial spectra", "setting": "[3]", "value": 0.20},
      {"measurement": "antibacterial spectra", "setting": "[4]", "value": 1.56},
      {"measurement": "antibacterial spectra", "setting": "[5]", "value": 0.20},
      {"measurement": "antibacterial spectra", "setting": "[6]", "value": 3.13},
      {"measurement": "antibacterial spectra", "setting": "[7]", "value": 25},
      {"measurement": "antibacterial spectra", "setting": "[8]", "value": 1.56},
      {"measurement": "antibacterial spectra", "setting": "[9]", "value": 3.13},
      {"measurement": "antibacterial spectra", "setting": "[10]", "value": 0.78},
      {"measurement": "antibacterial spectra", "setting": "[11]", "value": 1.56},
      {"measurement": "antibacterial spectra", "setting": "[12]", "value": 12.5},
      {"measurement": "antibacterial spectra", "setting": "[13]", "value": 0.78},
      {"measurement": "antibacterial spectra", "setting": "[14]", "value": 0.39},
      {"measurement": "antibacterial spectra", "setting": "[15]", "value": 6.25},
      {"measurement": "antibacterial spectra", "setting": "[16]", "value": 3.13},
      {"measurement": "antibacterial spectra", "setting": "[17]", "value": 0.78},
      {"measurement": "antibacterial spectra", "setting": "[18]", "value": 6.25}
    ]}
  ]
}
